Experimental findings from patent publication US11357856B2, “Lipids for delivery of active agents” (Acuitas Therapeutics, Inc., priority 2017, dated 2022) are described below.

Series [1] is described as follows: Determination of pKa of formulated lipids (TNS fluorescence assay in lipid nanoparticles). Conditions: cationic lipid formulated in lipid nanoparticles (cationic lipid/DSPC/cholesterol/PEG-lipid 50/10/38.5/1.5 mol %); pH of half-maximal TNS fluorescence. The series is classed as physicochemical. As for the experimental part: As described elsewhere, the pKa of formulated cationic lipids is correlated with the effectiveness of LNPs for delivery of nucleic acids (see Jayaraman et al, Angewandte Chemie, International Edition (2012), 51(34), 8529-8533; Semple et al, Nature Biotechnology 28, 172-176 (2010)). The preferred range of pKa is ˜5 to ˜7. […] Lipid nanoparticles comprising cationic lipid/DSPC/cholesterol/PEG-lipid (50/10/38.5/1.5 mol %) in PBS at a concentration of 0.4 mM total lipid are prepared using the in-line process as described in Example 1. TNS is prepared as a 100 μM stock solution in distilled water. Vesicles are diluted to 24 μM lipid in 2 mL of buffered solutions containing, 10 mM HEPES, 10 mM MES, 10 mM ammonium acetate, 130 mM NaCl, where the pH ranged from 2.5 to 11. An aliquot of the TNS solution is added to give a final concentration of 1 μM and following vortex mixing fluorescence intensity is measured at room temperature in a SLM Aminco Series 2 Luminescence Spectrophotometer using excitation and emission wavelengths of 321 nm and 445 nm. A sigmoidal best fit analysis is applied to the fluorescence data and the pKa was measured as the pH giving rise to half-maximal fluorescence intensity.

Series [2] deals with luciferase expression in the liver (FLuc mRNA). Briefly: Luciferase mRNA in vivo evaluation using lipid nanoparticle compositions (liver luciferase expression). Also noted: species or system mice. The settings on record: LNP 50/10/38.5/1.5 (PEG-DMA) or 47.5/10/40.8/1.7, tail vein injection, liver 4 hours after administration; for Liver Luc @ 0.5 mg/kg (ng luc/g liver): 0.5 mg mRNA/kg; for Liver Luc @ 0.3 mg/kg (ng luc/g liver): 0.3 mg mRNA/kg; for Liver Luc @ 1.0 mg/kg (ng luc/g liver): 1.0 mg mRNA/kg. As for the experimental part: Lipid nanoparticles are prepared and tested according to the general procedures described in PCT Pub. Nos. WO 2015/199952 and WO 2017/004143, the full disclosures of which are incorporated herein by reference. Briefly, cationic lipid, DSPC, cholesterol and PEG-lipid are solubilized in ethanol at a molar ratio of about 50:10:38.5:1.5 or about 47.5:10:40.8:1.7. Lipid nanoparticles (LNP) are prepared at a total lipid to mRNA weight ratio of approximately 10:1 to 30:1. The mRNA is diluted to 0.2 mg/mL in 10 to 50 mM citrate or acetate buffer, pH 4. Syringe pumps are used to mix the ethanolic lipid solution with the mRNA aqueous solution at a ratio of about 1:5 to 1:3 (vol/vol) with total flow rates above 15 mL/min. The ethanol is then removed and the external buffer replaced with PBS by dialysis. Finally, the lipid nanoparticles are filtered through a 0.2 μm pore sterile filter. Lipid nanoparticle particle size is approximately 55-95 nm diameter, and in some instances approximately 70-90 nm diameter as determined by quasi-elastic light scattering using a Malvern Zetasizer Nano ZS (Malvern, UK).
Studies are performed in 6-8 week old female C57BL/6 mice (Charles River) or 8-10 week old CD-1 (Harlan) mice (Charles River) according to guidelines established by an institutional animal care committee (ACC) and the Canadian Council on Animal Care (CCAC). Varying doses of mRNA-lipid nanoparticle are systemically administered by tail vein injection and animals euthanized at a specific time point (e.g., 4 hours) post-administration. Liver and spleen are collected in pre-weighed tubes, weights determined, immediately snap frozen in liquid nitrogen and stored at −80° C. until processing for analysis.
For liver, approximately 50 mg is dissected for analyses in a 2 mL FastPrep tubes (MP Biomedicals, Solon Ohio). ¼″ ceramic sphere (MP Biomedicals) is added to each tube and 500 μL of Glo Lysis Buffer—GLB (Promega, Madison Wis.) equilibrated to room temperature is added to liver tissue. Liver tissues are homogenized with the FastPrep24 instrument (MP Biomedicals) at 2×6.0 m/s for 15 seconds. Homogenate is incubated at room temperature for 5 minutes prior to a 1:4 dilution in GLB and assessed using SteadyGlo Luciferase assay system (Promega). Specifically, 50 μL of diluted tissue homogenate is reacted with 50 μL of SteadyGlo substrate, shaken for 10 seconds followed by 5 minute incubation and then quantitated using a CentroXS^3 LB 960 luminometer (Berthold Technologies, Germany). The amount of protein assayed is determined by using the BCA protein assay kit (Pierce, Rockford Ill.). Relative luminescence units (RLU) are then normalized to total ug protein assayed. To convert RLU to ng luciferase a standard curve is generated with QuantiLum Recombinant Luciferase (Promega).
The FLuc mRNA (L-6107 or L-7202) from Trilink Biotechnologies will express a luciferase protein, originally isolated from the firefly, photinus pyralis. FLuc is commonly used in mammalian cell culture to measure both gene expression and cell viability. It emits bioluminescence in the presence of the substrate, luciferin. This capped and polyadenylated mRNA is fully substituted with respect to uridine and/or cytidine nucleosides.
The cationic lipids shown in Table 2 have previously been tested with nucleic acids. For comparative purposes, these lipids were also used to formulate lipid nanoparticles containing the FLuc mRNA (L-6107) using an in line mixing method, as described in Example 1 and in PCT/US10/22614, which is hereby incorporated by reference in its entirety. Lipid nanoparticles were formulated using the following molar ratio: 50% Cationic lipid/10% distearoylphosphatidylcholine (DSPC)/38.5% Cholesterol/1.5% PEG lipid (“PEG-DMG”, i.e., 1-(monomethoxy-polyethyleneglycol)-2,3-dimyristoylglycerol, with an average PEG molecular weight of 2000). In alternate embodiments, cationic lipid, DSPC, cholesterol and PEG-lipid are formulated at a molar ratio of approximately 47.5:10:40.8:1.7. […]

With `CCCCCCCCC(CCCCCC)CN(CCCCCCN(C)C)CC(CCCCCC)CCCCCCCC` (stereo not drawn) [Compound 15], in series [1], the pKa came to 5.91. The “Liver Luc @ 0.5 mg/kg (ng luc/g liver)” value in series [2] was 2417 ± 833 ng luc/g liver.

As for `CCCCCCCCC(CCCCCC)CN(CCCCN(C)C)CC(CCCCCC)CCCCCCCC` (stereo not drawn) [Compound 4], the pKa in series [1] was found to be 5.55. In series [2], the “Liver Luc @ 0.3 mg/kg (ng luc/g liver)” value worked out at 87 ± 11 ng luc/g liver and the “Liver Luc @ 1.0 mg/kg (ng luc/g liver)” value is on record as 233 ± 121 ng luc/g liver.

In series [1], `CCCCCCCCC(CCCCCC)CN(CCCCCN(CCO)CCO)CC(CCCCCC)CCCCCCCC` (stereo not drawn) [Compound 16] came in with a pKa of 5.87. Also, the “Liver Luc @ 0.5 mg/kg (ng luc/g liver)” value in series [2] is 52 ± 26 ng luc/g liver.

Molecule `CCCCCCCCC(CCCCCC)CN(CCCCCN(C)C)CC(CCCCCC)CCCCCCCC` (stereo not drawn) [Compound 5] had a pKa in series [1] of 5.77. Further, in series [2], the “Liver Luc @ 0.3 mg/kg (ng luc/g liver)” value is reported as 2840 ± 757 ng luc/g liver and the “Liver Luc @ 1.0 mg/kg (ng luc/g liver)” value is listed as 13739 ± 7631 ng luc/g liver.

In the case of `CCCCCCCCC(CCCCCC)CN(CCCNC)CC(CCCCCC)CCCCCCCC` (stereo not drawn) [Compound 17], in series [1], the pKa was determined as 6.49. For the same molecule, the “Liver Luc @ 0.5 mg/kg (ng luc/g liver)” value in series [2] stood at 12 ± 5 ng luc/g liver.
